Laboratory results reported in US20080248008A1, “Inhibitors of Protein Kinase a Anchoring” (priority 2004, published 2008).

Columns and labels:
[1] = Circular dichroism, α helical content; type: physicochemical
Procedure: Circular Dichroism. CD spectra were recorded by using a Jasco J-810 spectropolarimeter (Jasco). Measurements were performed at 25° C. by using a quartz cuvette (Starna) with a path length of 0.1 cm. All the measurements were performed with a peptide concentration of 0.10 mg/ml in PBS containing 0-75% trifluoroethanol (TFE). Samples were scanned five times at 20 nm/min with a bandwidth of 1 nm and a response time of 1 s, over the wavelength range 190 to 260 nm. The data were averaged, and the spectrum of a peptide-free control sample was subtracted. The α helical content was calculated after smoothing (means-movement method; convolution width, 13) from ellipticity data, using the neural network program CDNN version 2.1. All measurements were conducted three times.

PKA-RIIα = PKA-RIIα (Homo sapiens, UniProt P13861); test: Solid phase pull down from T cell lysate, PKA-RIIα; type: binding; design: endogenous in cells; host or cells: Jurkat T cells (lysate); details: overnight
Procedure: Solid phase assay and cell lysate. 5×10^6 Y1 cells or 20×10^6 Jurkat T cells lysed in 150 mM NaCl, 1% NP-40, 0.5% deoxycholate, 0.1% SDS and 50 mM Tris HCl (7.8) were incubated overnight at 4° C. with MEME3 and SM3 peptides synthesized on membranes (Autospot, Intavis, AG). The membranes were washed two times for 10 minutes in lysis buffer and thereafter in high salt lysis buffer (1 M NaCl) before boiling in SDS-PAGE loading buffer.
Solid phase pull down (see schematic illustration in FIG. 24A, left panel) was performed to analyse endogenous PKA binding to MEME3. MEME3 and SM3 peptides synthesized in triplicate on membranes were incubated overnight in T cell lysate, thereafter bound proteins were eluted, subjected to 10% PAGE electrophoresis and analysed by immunoblotting (FIG. 11). The presence of PKA subunits was assessed by immunoblotting using specific antibodies against PKA-RIα and PKA-RIIα subunits.

PKA-C subunit = test: Coimmunoprecipitation of PKA kinase activity from HEK293 cells; type: biochemical, human
Procedure: Coimmunoprecipitation of PKA kinase activity. Cells at 50-80% confluency were transfected by using FuGENE (Roche Biochemicals). Five micrograms of plasmid DNA (GFP-AKAP-is-V5His, GFP-Scrambled-AKAP-is-V5His, GFP-MEME3-V5H is-and GFP-Scrambled-MEME3-V5His) was transfected into HEK293-cells. Cells were lysed 24 h later in 20 mM Hepes, pH 7.5/150 mM NaCl/1 mM EDTA/1% Triton X-100. MEME3 and the other peptides was immunoprecipitated. PKA kinase assays were performed by the filter paper assay (Corbin and Reimann, 1974, Methods Enzymol., 38, 287-294). The protein kinase inhibitor (PKI) residues 5-24 peptide was used as a specific inhibitor of the kinase (Scott et al., 1986, PNAS, 83, 1613-1616).
The specific activity (pmol/min per IP) of PKA-C subunit from HEK293 cells co-precipitating with chimeric MEME3 fusion protein was measured by a phosphotransferase assay using Kemptide as a substrate (Kemp et al., J. Biol. Chem. 252, p 4888-4894, 1977; Roskoski, R. Methods Enzymol. 99, p 3-6, 1983) in the absence and presence of cAMP (FIG. 12). Specific PKA activity was abrogated when PKI (5-24) peptide (10 μM) was added to the reaction mixture. The MEME3 fusion protein coprecipitated 17-fold more PKA-C activity than the RIIα-selective peptide, AKAP-is (IS) (Alto et al., 2003, supra). […] The accumulated data from three independent experiments are shown.

Human RIα = target: T1, Human RIα (Homo sapiens, UniProt P10644); test: R-overlay with human RIα; type: binding; details: equal amounts of human or bovine RIα, n=3
T1 construct: made in house; host or cells: E. coli BL21 (B121 [sic])
Procedure: R-overlay. R-overlays were conducted as described, using ^32P-labeled recombinant murine RII (Hausken, Z. E., et al., 1998 in Protein Targeting Protocols, ed. Clegg, R. A. (Humana, Totowa, N.J.), Vol. 88, pp. 47-64) or recombinant bovine RI (A98S) or by cold RI-overlay where bound RIα was detected by Western blot. Cold RI-overlay was performed by incubating the membranes with 250 nM RI overnight at 4° C., then the membranes were washed five times in TBST for 5 min. Detection of RI was performed using an anti-RI rabbit polyclonal antibody (Santa Cruz) at a concentration of 0.2 μg/μl for 1 hour at 4° C. Then the membranes were washed five times for 5 minutes in PBS followed by incubation with HRP-conjugated anti-rabbit IgGs (1:5000) for 1 hour at 4° C. The membranes were washed in PBS as described above before detection by Supersignal West Dura Extended Duration Substrate (Pierce).
The MEME3 sequence was synthesized on a membrane and RIα binding analysed by R-overlay using equal amounts of either human or bovine RIα (FIG. 3C).

T1 sequence (P10644 whole entry): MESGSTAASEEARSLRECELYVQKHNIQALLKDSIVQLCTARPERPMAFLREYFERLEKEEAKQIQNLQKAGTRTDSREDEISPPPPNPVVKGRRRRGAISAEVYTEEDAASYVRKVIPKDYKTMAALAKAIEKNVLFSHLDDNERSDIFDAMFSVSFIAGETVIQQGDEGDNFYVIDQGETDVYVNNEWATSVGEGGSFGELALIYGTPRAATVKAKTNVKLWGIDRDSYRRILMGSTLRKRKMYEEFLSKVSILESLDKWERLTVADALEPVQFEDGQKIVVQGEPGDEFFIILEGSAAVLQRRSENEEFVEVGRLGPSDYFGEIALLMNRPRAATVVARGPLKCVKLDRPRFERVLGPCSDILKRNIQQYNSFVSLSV
Chain of PKA-RIIα (P13861 whole entry): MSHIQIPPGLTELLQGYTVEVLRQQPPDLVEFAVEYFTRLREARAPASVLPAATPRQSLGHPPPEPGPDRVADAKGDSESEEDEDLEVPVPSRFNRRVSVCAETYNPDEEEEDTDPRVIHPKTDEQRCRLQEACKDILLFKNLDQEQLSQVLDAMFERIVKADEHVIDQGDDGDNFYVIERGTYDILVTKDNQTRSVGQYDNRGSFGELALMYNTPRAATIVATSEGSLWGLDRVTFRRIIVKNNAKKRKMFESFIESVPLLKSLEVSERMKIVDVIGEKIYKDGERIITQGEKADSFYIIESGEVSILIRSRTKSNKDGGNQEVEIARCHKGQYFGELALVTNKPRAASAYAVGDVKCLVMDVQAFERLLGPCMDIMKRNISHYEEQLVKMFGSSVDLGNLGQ

| Compound | helicity ([1]; 50% TFE) [%] | helicity ([1]; absence of TFE) [%] | immobilization of PKA-RIIα (PKA-RIIα) | coprecipitated PKA-C activity relative to AKAP-is (IS) (PKA-C subunit; Kemptide substrate, three experiments) [fold] | human RIα binding (R-overlay) (Human RIα) | coprecipitated kinase activity (PKA-C subunit) |
| --- | --- | --- | --- | --- | --- | --- |
| CC[C@H](C)[C@H](NC(=O)[C@H](CCC(N)=O)NC(=O)[C@H](CC(=O)O)NC(=O)[C@H](C)NC(=O)[C@H](CC(C)C)NC(=O)[C@H](CCC(N)=O)NC(=O)[C@H](CC(N)=O)NC(=O)[C@H](C)NC(=O)[C@H](Cc1ccc(O)cc1)NC(=O)[C@H](CCC(N)=O)NC(=O)[C@H](CCC(=O)O)NC(=O)[C@@H](N)CC(C)C)C(=O)N[C@H](C(=O)N[C@@H](CCCCN)C(=O)N[C@@H](CCC(=O)O)C(=O)N[C@@H](C)C(=O)N[C@H](C(=O)N[C@@H](CCC(=O)O)C(=O)N[C@@H](CCCCNC(=O)c1ccc2c(c1)C(=O)OC21c2ccc(O)cc2Oc2cc(O)ccc21)C(N)=O)[C@@H](C)O)[C@@H](C)CC [MEME3] | 49 | 12 | not PKA-RIIα | 17 | bound with similar affinity to MEME3 as did bovine RIα |  |
| IEKELAQQYQNADAITLE [SM3, scrambled MEME3 negative control peptide, reference compound] | 29 | 7 | Neither PKA-RIα nor PKA-RIIα bound |  | no RIα binding at all | No kinase activity was detected |
| LEQYANQLADQIIKEATERRRRRRRRRrr [MEME3-Arg11] | 39 |  |  |  |  |  |
